The results in this text go back to ChEMBL document CHEMBL1201862, “PubChem BioAssay data set” (2004).

Each structure is given as a SMILES string.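 Five concentrations, 48 hours, 96-well plates. The concentration for 50% growth inhibition is given as GI50.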 Activity calls are given as the source filed them. Cut-off read from the data, not from the text of the source: active = GI50 up to about 1.1 µM and inactive = higher. Numbered stars: 1 amine (or outer) side, 2 acyl side, 3 side chain; on linkers, the order of the positions; unused ones are H or OH. Square brackets hold non-standard residues; d marks the D form. Peptide text beside a SMILES is read from it. * marks the point of attachment. X30 = CC(=O)N(C)SCC(N[*:1])C(=O)[*:2]; Cbz = O=C(OCc1ccccc1)*; Bn = c1ccc(C*)cc1

Among the test systems are K562; CCRF-CEM; COLO 205; IGROV-1; SW-620; OVCAR-8; HOP-92; SNB-75; A498; OVCAR-3; Hs-578T; HCT-116; BT-549; U-251; NCI/ADR-RES; RPMI-8226; SF-268; T47D; LOX IMVI.
What all share (experiment): NCI tumour cell line growth inhibition, 48 h

As for `CC(=O)N(CCCCNC(=O)C(F)(F)F)CCCNC(=O)C(F)(F)F`, the GI50 in the test on K562, with CCRF-CEM, with COLO 205, in the test with IGROV-1, with SW-620 and in the test on OVCAR-8 was > 100 µM (inactive) each time. Moreover, the GI50 with HOP-92, with SNB-75, with A498, with OVCAR-3, with Hs-578T and in the test on HCT-116 was > 100 µM (inactive) throughout. The GI50 in the test on BT-549, with U-251, in the test on NCI/ADR-RES, in the test on RPMI-8226, with SF-268 and in the test on T47D was > 100 µM (inactive) in each case.
Take `CN(C)CCNc1ccc(NCC[N+](C)(C)Cc2ccc([N+](=O)[O-])cc2)c2c1C(=O)c1c(O)ccc(O)c1C2=O`: the GI50 is 6.08 µM (inactive) in the test with K562; 11.5 µM (inactive) in the test on CCRF-CEM; 25.5 µM (inactive) in the test with LOX IMVI; 27.6 µM (inactive) in the test with COLO 205; 40.3 µM (inactive) in the test with IGROV-1; 27.9 µM (inactive) in the test on SW-620. Moreover, the GI50 in the test on OVCAR-8 was > 100 µM (inactive); in the test on SNB-75, 19.6 µM (inactive); with A498 it was > 100 µM (inactive); in the test with OVCAR-3 it was > 100 µM (inactive); with Hs-578T, 28.9 µM (inactive); in the test with HCT-116, 15.8 µM (inactive). The GI50 is 18.8 µM (inactive) with BT-549; 34 µM (inactive) with U-251; > 100 µM (inactive) in the test with NCI/ADR-RES; 7.57 µM (inactive) in the test on RPMI-8226; 19.8 µM (inactive) with SF-268; 36.3 µM (inactive) in the test on T47D.
Turning to `Cc1nc(/C(=N\n2cnnc2)Nc2ccc(Br)cc2)no1`, the GI50 in the test on K562 was 57.1 µM (inactive); with CCRF-CEM it was > 100 µM (inactive); with COLO 205 it was > 100 µM (inactive); with IGROV-1, > 100 µM (inactive); with SW-620, > 100 µM (inactive); in the test with OVCAR-8 it was > 100 µM (inactive). In addition, the GI50 in the test on HOP-92 is > 100 µM (inactive); in the test with SNB-75, 66.7 µM (inactive); in the test with A498 it was > 100 µM (inactive); with OVCAR-3, > 100 µM (inactive); with Hs-578T, > 100 µM (inactive); in the test with HCT-116, > 100 µM (inactive). Also, the GI50 in the test with BT-549, with U-251, with NCI/ADR-RES, in the test with RPMI-8226 and in the test with T47D was > 100 µM (inactive) throughout.
In the case of `CCOC(=O)c1nc2cc(F)c(N3CCOCC3)cc2[nH]c1=O`, the GI50 in the test on K562 was > 100 µM (inactive); in the test on CCRF-CEM, 96.4 µM (inactive); in the test on COLO 205, > 100 µM (inactive); in the test with IGROV-1, 80.9 µM (inactive); with SW-620, > 100 µM (inactive); in the test with OVCAR-8, > 100 µM (inactive). Further, the GI50 was > 100 µM (inactive) with HOP-92; > 100 µM (inactive) with SNB-75; > 100 µM (inactive) in the test with A498; > 100 µM (inactive) with OVCAR-3; 56.1 µM (inactive) in the test on Hs-578T; > 100 µM (inactive) in the test on HCT-116. The GI50 in the test with BT-549 is > 100 µM (inactive); in the test with U-251 it was 99.1 µM (inactive); with NCI/ADR-RES, > 100 µM (inactive); in the test on RPMI-8226 it was > 100 µM (inactive); in the test on SF-268 it was > 100 µM (inactive); in the test on T47D, > 100 µM (inactive).
Turning to `CC(=O)N(C)SCC(NC(=O)C(Cc1ccccc1)NC(=O)OCc1ccccc1)C(=O)NC(Cc1ccccc1)C(=O)NC(Cc1c[nH]c2ccccc12)C(=O)NC(CCCCNC(=O)OCc1ccccc1)C(=O)NC(C(=O)NC(CSN(C)C(C)=O)C(=O)NC(C(N)=O)C(C)OCc1ccccc1)C(C)OCc1ccccc1` (stereo not drawn) (Cbz-F[X30]FWK(Cbz)T(Bn)[X30]T(Bn)-NH2; configuration not given here), the GI50 in the test on K562 was > 100 µM (inactive); with CCRF-CEM it was > 100 µM (inactive); with LOX IMVI, 86.5 µM (inactive); in the test on COLO 205, > 100 µM (inactive); in the test with IGROV-1, > 100 µM (inactive); in the test on SW-620, > 100 µM (inactive). Also, the GI50 in the test with OVCAR-8 is > 100 µM (inactive); in the test on HOP-92, 72.1 µM (inactive); in the test on SNB-75, > 100 µM (inactive); with OVCAR-3, > 100 µM (inactive); in the test on Hs-578T it was > 100 µM (inactive); with HCT-116, > 100 µM (inactive). In addition, the GI50 was > 100 µM (inactive) in the test on BT-549; 70.5 µM (inactive) in the test on U-251; > 100 µM (inactive) in the test with NCI/ADR-RES; 74.3 µM (inactive) with RPMI-8226; > 100 µM (inactive) in the test with SF-268; > 100 µM (inactive) with T47D.
As for `CC1OC2OC3C(OCC(O)C3O)OC(=O)[C@]34CCC(C)(C)CC3C3=CCC5[C@@]6(C)C[C@H](O)[C@H](OC7OC(CO)C(O)C(O)C7OC7OC(COC(=O)CC(C)(O)CC(=O)OC1C(OC1OC(CO)C(O)C(O)C1O)C2O)C(O)C(O)C7O)[C@@](C)(CO)C6CC[C@@]5(C)[C@]3(C)CC4` (stereo partly drawn), the GI50 is 4.18 µM (inactive) in the test on CCRF-CEM; 3.27 µM (inactive) in the test on LOX IMVI; 2.23 µM (inactive) in the test on COLO 205; 3.9 µM (inactive) in the test on IGROV-1; 0.359 µM (active) in the test on SW-620; 3.92 µM (inactive) in the test on OVCAR-8. In addition, the GI50 is 2.24 µM (inactive) in the test with HOP-92; 2.82 µM (inactive) in the test on SNB-75; 4.35 µM (inactive) with OVCAR-3; 8 µM (inactive) in the test on Hs-578T; 2.59 µM (inactive) in the test with HCT-116; 6.03 µM (inactive) with BT-549. Besides, the GI50 in the test on U-251 was 2.9 µM (inactive); with NCI/ADR-RES, 3.15 µM (inactive); with RPMI-8226, 2.51 µM (inactive); with SF-268 it was 2.94 µM (inactive); with T47D it was 3.34 µM (inactive).
Consider `FC1C2=C(SC1(F)F)C1CCC2C1` (stereo not drawn), for which the GI50 in the test with K562, in the test with LOX IMVI, in the test on COLO 205, with IGROV-1, in the test with SW-620 and in the test on OVCAR-8 was > 100 µM (inactive) throughout. For the same molecule, the GI50 in the test with HOP-92, with SNB-75, in the test on OVCAR-3, in the test on Hs-578T, in the test with HCT-116 and with BT-549 was > 100 µM (inactive) in each case. For the same molecule, the GI50 with NCI/ADR-RES, in the test with RPMI-8226 and in the test with T47D was > 100 µM (inactive) each time.
Consider `CCOP(=O)(O)CC1OC(CO)C(O)C1O` (stereo not drawn), for which the GI50 in the test on K562, in the test on CCRF-CEM, with LOX IMVI, in the test with COLO 205, with IGROV-1 and with SW-620 was > 100 µM (inactive) each time. Besides, the GI50 in the test with OVCAR-8, in the test on HOP-92, in the test on SNB-75, with OVCAR-3, in the test with Hs-578T and with HCT-116 was > 100 µM (inactive) each time. In addition, the GI50 in the test on BT-549, in the test with U-251, in the test on NCI/ADR-RES, in the test with SF-268 and with T47D was > 100 µM (inactive) each time.
